Results on 18 compounds are retold here after PubChem BioAssay AID330 (DTP/NCI, 2004).

Where “and” joins values, the source holds several entries; their conditions need not be identical. Equal values may be shown once. Inconclusive results and toxic doses are left out. Numbered stars: 1 amine (or outer) side, 2 acyl side, 3 side chain; on linkers, the order of the positions; unused ones are H or OH. Bridge positions count the residues as written; N and C are the ends. Square brackets hold non-standard residues; d marks the D form. Peptide text beside a SMILES is read from it. I, II: the chains in the order shown. Actinocin(1to9) = Cc1c2oc3c(C)ccc(C(=O)[*:2])c3nc-2c(C(=O)[*:1])c(N)c1=O; Hyp = O=C(O)[CH]1C[CH](O)CN1; NMeV = CN[CH](C(=O)O)C(C)C; Sar = CNCC(=O)O

For this assay, the system named is P388 leukemia ip, CD2F1 mice, survival T/C. In words: NCI In Vivo Anticancer Drug Screen. Data for tumor model P388 Leukemia (intraperitoneal) in CD2F1 (CDF1) mice. Conditions: endpoint: median survival time, higher = longer survival. The essentials: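 Mice carrying the transplanted tumor received test compound or vehicle. Survival was recorded in each group, and the value is the treated-group measurement divided by that of the vehicle-treated control group.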

Setting [1] is: dose: 60.0 mg/kg/injection, schedule: Q01DX005 (ip), vehicle: Klucel (hydroxypropylcellulose) (HPC).
[2] abbreviates: dose: 120.0 mg/kg/injection, schedule: Q01DX005 (ip), vehicle: Klucel (hydroxypropylcellulose) (HPC).
Setting [3] is: dose: 240.0 mg/kg/injection, schedule: Q01DX005 (ip), vehicle: Klucel (hydroxypropylcellulose) (HPC).
Where [4] appears, read: dose: 50.0 mg/kg/injection, schedule: Q01DX009 (ip), vehicle: Klucel (hydroxypropylcellulose) (HPC).
Where [5] appears, read: dose: 100.0 mg/kg/injection, schedule: Q01DX009 (ip), vehicle: Klucel (hydroxypropylcellulose) (HPC).

Turning to `CC(CC(=O)c1ccccc1)=NCCN=C(C)CC(=O)c1ccccc1.[Cl][Sn][Cl]`, the T/C was 97 % of control (dose: 100.0 mg/kg/injection, schedule: Q01DX001 (ip), vehicle: Klucel (hydroxypropylcellulose) (HPC)); 102 % of control (dose: 200.0 mg/kg/injection, schedule: Q01DX001 (ip), vehicle: Klucel (hydroxypropylcellulose) (HPC)); 101 % of control (dose: 400.0 mg/kg/injection, schedule: Q01DX001 (ip), vehicle: Klucel (hydroxypropylcellulose) (HPC)).

For `CCCCS/C=C1\CCc2cc(OC)ccc2C12CC1=C(CCc3cc(OC)ccc31)C(SCCCC)C2` (stereo not drawn), the T/C reads like this: (dose: 50.0 mg/kg/injection, schedule: Q01DX009 (ip), vehicle: saline with Tween-80) 94 % of control; (dose: 100.0 mg/kg/injection, schedule: Q01DX009 (ip), vehicle: saline with Tween-80) 88 % of control; (dose: 200.0 mg/kg/injection, schedule: Q01DX009 (ip), vehicle: saline with Tween-80) 87 % of control.

With `O=C(Nc1c(Cl)cccc1Cl)OCCOc1ccc(Cl)cc1Cl`, the T/C runs as follows: under setting [1], 99 % of control; under setting [2], 96 % of control; under setting [3], 99 % of control.

In the case of `O=C(CCC1(CCC(=O)c2ccccc2)c2ccccc2C(=O)c2ccccc21)c1ccccc1`, the T/C was 93 % of control (dose: 25.0 mg/kg/injection, schedule: Q04DX003 (ip), vehicle: Klucel (hydroxypropylcellulose) (HPC)); 108 % of control (dose: 50.0 mg/kg/injection, schedule: Q04DX003 (ip), vehicle: Klucel (hydroxypropylcellulose) (HPC)); 86 % of control (dose: 100.0 mg/kg/injection, schedule: Q04DX003 (ip), vehicle: Klucel (hydroxypropylcellulose) (HPC)); 91 % of control (dose: 200.0 mg/kg/injection, schedule: Q04DX003 (ip), vehicle: Klucel (hydroxypropylcellulose) (HPC)).

As to `Cc1cc(NCCCCCCCCNc2cc(C)nc3cc(N(C)C)ccc23)c2ccc(N(C)C)cc2n1`, the T/C is, setting by setting: (dose: 12.5 mg/kg/injection, schedule: Q04DX002 (ip), vehicle: distilled water + Tween-80 + alcohol) 108 % of control; (dose: 25.0 mg/kg/injection, schedule: Q04DX002 (ip), vehicle: distilled water + Tween-80 + alcohol) 118 % of control; (dose: 100.0 mg/kg/injection, schedule: Q04DX002 (ip), vehicle: distilled water + Tween-80 + alcohol) 172 % of control.

On to `COc1cccc2c1C(=O)c1c(O)c3c(c(O)c1C2=O)C[C@@](O)(/C(C)=N/NC(=O)c1ccc(Cl)c(Cl)c1)C[C@@H]3OC1CC(N)C(O)C(C)O1` (stereo partly drawn), for which the T/C runs as follows: (dose: 0.12 mg/kg/injection, schedule: Q01DX009 (ip), vehicle: water) 117 % of control; (dose: 0.5 mg/kg/injection, schedule: Q01DX009 (ip), vehicle: water) 157 % of control; (dose: 1.0 mg/kg/injection, schedule: Q01DX009 (ip), vehicle: water) 166 % of control; (dose: 2.0 mg/kg/injection, schedule: Q01DX009 (ip), vehicle: water) 155 % of control and 175 % of control; (dose: 4.0 mg/kg/injection, schedule: Q01DX009 (ip), vehicle: water) 163 % of control; (dose: 5.0 mg/kg/injection, schedule: Q01DX001 (ip), vehicle: water) 159 % of control. Besides, the T/C was 168 % of control (dose: 10.0 mg/kg/injection, schedule: Q01DX001 (ip), vehicle: water) and 123 % of control (dose: 20.0 mg/kg/injection, schedule: Q01DX001 (ip), vehicle: water).

Consider `O=C(/N=C1\N=Nc2nc(CC(=O)c3cccc4ccccc34)c(O)n21)Nc1ccc(Cl)cc1`, for which the T/C (dose: 50.0 mg/kg/injection, schedule: Q01DX005 (ip), vehicle: saline with Tween-80) is 96 % of control; the T/C (dose: 100.0 mg/kg/injection, schedule: Q01DX005 (ip), vehicle: saline with Tween-80) was 103 % of control; the T/C (dose: 200.0 mg/kg/injection, schedule: Q01DX005 (ip), vehicle: saline with Tween-80) was 104 % of control.

As for `C=CCn1c(=O)n(C)c(=O)c2[nH]c(Cl)nc21`, the T/C runs as follows: (dose: 16.0 mg/kg/injection, schedule: Q01DX009 (ip), vehicle: Klucel (hydroxypropylcellulose) (HPC)) 108 % of control; (dose: 32.0 mg/kg/injection, schedule: Q01DX009 (ip), vehicle: Klucel (hydroxypropylcellulose) (HPC)) 103 % of control; under setting [4], 110 % of control; (dose: 64.0 mg/kg/injection, schedule: Q01DX009 (ip), vehicle: Klucel (hydroxypropylcellulose) (HPC)) 104 % of control; under setting [5], 112 % of control.

As for `O=S(=O)(OCC#CCOS(=O)(=O)c1ccc(Cl)c(Cl)c1)c1ccc(Cl)c(Cl)c1`, the T/C is, setting by setting: (dose: 12.5 mg/kg/injection, schedule: Q01DX009 (ip), vehicle: Klucel (hydroxypropylcellulose) (HPC)) 95 % of control; (dose: 25.0 mg/kg/injection, schedule: Q01DX009 (ip), vehicle: Klucel (hydroxypropylcellulose) (HPC)) 92 % of control; under setting [4], 91 % of control; under setting [5], 92 % of control.

Regarding `COc1ccc(C2NC(c3ccc(OC)cc3)C3CCCC2C3O)cc1` (stereo not drawn), the T/C (dose: 100.0 mg/kg/injection, schedule: Q04DX003 (ip), vehicle: saline) is 100 % of control; the T/C (dose: 200.0 mg/kg/injection, schedule: Q04DX003 (ip), vehicle: saline) was 97 % of control; the T/C (dose: 400.0 mg/kg/injection, schedule: Q04DX003 (ip), vehicle: saline) was 94 % of control.

With `Cc1c2oc3c(C)ccc(C(=O)NC4C(=O)NC(C(C)C)C(=O)N5CCCC5C(=O)N(C)CC(=O)N(C)C(C(C)C)C(=O)OC4C)c3nc-2c(C(=O)NC2C(=O)NC(C(C)C)C(=O)N3CC(O)CC3C(=O)N(C)CC(=O)N(C)C(C(C)C)C(=O)OC2C)c(N)c1=O` (stereo not drawn) (I: TV[Hyp][Sar][NMeV] / II: TVP[Sar][NMeV]; ester I:1-I:C, II:1-II:C; linker I:N-II:N via Actinocin(1to9); configuration not given here), the T/C (dose: 0.1 mg/kg/injection, schedule: Q01DX009 (ip), vehicle: Klucel (hydroxypropylcellulose) (HPC)) is 221 % of control; the T/C (dose: 0.2 mg/kg/injection, schedule: Q01DX009 (ip), vehicle: Klucel (hydroxypropylcellulose) (HPC)) is 108 % of control; the T/C (dose: 0.2 mg/kg/injection, schedule: Q01DX009 (ip), vehicle: water) was 151 % of control; the T/C (dose: 0.4 mg/kg/injection, schedule: Q01DX009 (ip), vehicle: water) was 186 % of control.

In the case of `COc1ccc2c(c1[N+](=O)[O-])CCCC(Br)(Br)C2=O`, the T/C by setting is: under setting [4], 107 % of control; under setting [5], 107 % of control; (dose: 200.0 mg/kg/injection, schedule: Q01DX009 (ip), vehicle: Klucel (hydroxypropylcellulose) (HPC)) 108 % of control.

For `CCN(CC)C1=C2/C=CC3=C2\C(=C/C=C\C=C/1C)CC3=O`, the T/C by setting is: under setting [1], 95 % of control; under setting [2], 98 % of control; under setting [3], 96 % of control.

Take `CC1CC(=O)Nc2cc(C(F)(F)F)ccc2N1` (stereo not drawn): the T/C is 95 % of control (dose: 50.0 mg/kg/injection, schedule: Q01DX005 (ip), vehicle: Klucel (hydroxypropylcellulose) (HPC)); 99 % of control (dose: 100.0 mg/kg/injection, schedule: Q01DX005 (ip), vehicle: Klucel (hydroxypropylcellulose) (HPC)); 93 % of control (dose: 200.0 mg/kg/injection, schedule: Q01DX005 (ip), vehicle: Klucel (hydroxypropylcellulose) (HPC)).

Take `CCCCCCCCCCCCCCCC[N+]1(CCCCCCCCCCCC)CCSCC1` (tested in a mixture with another compound): the T/C was 112 % of control (dose: 10.0 mg/kg/injection, schedule: Q01DX009 (ip), vehicle: saline with Tween-80) and 121 % of control (dose: 40.0 mg/kg/injection, schedule: Q01DX009 (ip), vehicle: saline with Tween-80).

As to `O=C(NC(Cc1ccc([N+](=O)[O-])cc1)C(=O)O)c1ccccc1` (stereo not drawn), the T/C (dose: 25.0 mg/kg/injection, schedule: Q01DX009 (ip), vehicle: other) was 104 % of control; the T/C (dose: 50.0 mg/kg/injection, schedule: Q01DX009 (ip), vehicle: other) was 110 % of control; the T/C (dose: 100.0 mg/kg/injection, schedule: Q01DX009 (ip), vehicle: other) was 104 % of control.

Consider `N#Cc1[nH]nc(N)c1C#N`, for which the T/C by setting is: (dose: 100.0 mg/kg/injection, schedule: Q01DX001 (ip), vehicle: water) 103 % of control; (dose: 200.0 mg/kg/injection, schedule: Q01DX001 (ip), vehicle: water) 103 % of control; (dose: 400.0 mg/kg/injection, schedule: Q01DX001 (ip), vehicle: water) 98 % of control.

As for `C#CC1OC12CCC1C3CC=C4CC(O)CCC4(C)C3CCC12` (stereo not drawn), the T/C reads like this: (dose: 50.0 mg/kg/injection, schedule: Q01DX009 (ip), vehicle: suspension in saline) 93 % of control; (dose: 100.0 mg/kg/injection, schedule: Q01DX009 (ip), vehicle: suspension in saline) 94 % of control; (dose: 200.0 mg/kg/injection, schedule: Q01DX009 (ip), vehicle: suspension in saline) 87 % of control.
